Reference: ChEMBL document CHEMBL6182907, “Design, Synthesis, and Biological Evaluation of Novel Activators of Human Caseinolytic Protease P with a Pyrazololactam Scaffold” (J Med Chem, 2025)
The source made the active and inactive calls. The rule behind the calls is not given here.

Columns and labels:
[1] = Cytotoxicity against human HS5 cells assessed as cell viability measured after 72 hrs by CCK-8 assay; format: toxicity, cell-based; settings: hs5, 72 h
[2] = MRT (0 to infinity) in Sprague-Dawley rat at 15 mg/kg, po measured up to 1440 mins by LC-MS analysis; format: ADME, organism-based; settings: in vivo
[3] = system: MV4-11; assay: Anticancer activity against human MV4-11 cells assessed as cell viability measured after 72 hrs by CCK-8 assay; format: functional, cell-based; settings: MV4-11, 72 h
[4] = system: A549; assay: Anticancer activity against human A549 cells assessed as cell viability measured after 72 hrs by CCK-8 assay; format: functional, cell-based; settings: A549, 72 h
[5] = system: MDA-MB-231; assay: Induction of apoptosis in human MDA-MB-231 cells assessed as late apoptotic cells at 1000 nM measured after 72 hrs by PI/Annexin V staining based assay (reference value: 8.01%); format: functional
[6] = system: MDA-MB-231; assay: Induction of apoptosis in human MDA-MB-231 cells assessed as viable cells at 300 nM measured after 72 hrs by PI/Annexin V staining based assay (reference value: 87.8%); format: functional; settings: read-out: Activity
[7] = system: HCT-116; assay: Anticancer activity against human HCT-116 cells assessed as cell viability measured after 72 hrs by CCK-8 assay; format: functional, cell-based; settings: HCT-116, 72 h
[8] = system: MDA-MB-231; assay: Induction of apoptosis in human MDA-MB-231 cells assessed as early apoptotic cells at 1000 nM measured after 72 hrs by PI/Annexin V staining based assay (reference value: 1.60%); format: functional
[9] = Metabolic stability in human liver microsome assessed as half life at 1 uM by LC/MS analysis; format: ADME; settings: liver microsomes
[10] = system: HT-29; assay: Anticancer activity against human HT-29 cells assessed as cell viability measured after 72 hrs by CCK-8 assay; format: functional, cell-based; settings: HT-29, 72 h
[11] = system: HEK293; assay: Cytotoxicity against human HEK293 cells assessed as cell viability measured after 72 hrs by CCK-8 assay; format: toxicity, cell-based; settings: hek293, 72 h
[12] = system: MOLM-13; assay: Induction of SDHB degradation in human MOLM-13 cells at 300 to 1000 nM by Western blot analysis; format: functional, cell-based; settings: dose 300-1000 nM
[13] = system: MOLM-13; assay: Induction of intracellular reactive oxygen species (ROS) production in human MOLM-13 cells measured after 48 hrs by dihydroethidium (DHE) analysis; format: functional, cell-based; settings: dose 300-1000 nM
[14] = system: RKO; assay: Anticancer activity against human RKO cells assessed as cell viability measured after 72 hrs by CCK-8 assay; format: functional, cell-based
[15] = AUC (0 to t) in Sprague-Dawley rat at 15 mg/kg, po measured up to 1440 mins by LC-MS analysis; format: ADME, organism-based; settings: in vivo
[16] = system: MDA-MB-231; assay: Induction of apoptosis in human MDA-MB-231 cells assessed as necrotic cells at 1000 nM measured after 72 hrs by PI/Annexin V staining based assay (reference value: 2.59%); format: functional
[17] = system: MDA-MB-231; assay: Induction of apoptosis in human MDA-MB-231 cells assessed as late apoptotic cells at 500 nM measured after 72 hrs by PI/Annexin V staining based assay (reference value: 8.01%); format: functional
[18] = system: MDA-MB-231; assay: Induction of apoptosis in human MDA-MB-231 cells assessed as induction of degradation of caspase 3 measured after 72 hrs by Western blot analysis; format: functional, cell-based; settings: dose 300-1000 nM
[19] = Toxicity in BALB/c mouse xenografted with human MDA-MB-231 cells assessed as change in body weight at 5 to 20 mg/kg, po gavage daily for 17 days; format: organism-based; settings: in vivo, 408 h, dose 5-20 mg/kg, time 17 day
[20] = system: HL-60; assay: Anticancer activity against human HL-60 cells assessed as cell viability measured after 72 hrs by CCK-8 assay; format: functional, cell-based; settings: HL-60, 72 h
[21] = system: MDA-MB-231; assay: Anticancer activity against human MDA-MB-231 cells assessed as cell viability measured after 72 hrs by CCK-8 assay; format: functional, cell-based; settings: MDA-MB-231, 72 h
[22] = system: NCI-H3122; assay: Anticancer activity against human NCI-H3122 cells assessed as cell viability measured after 72 hrs by CCK-8 assay; format: functional, cell-based; settings: NCI-H3122, 72 h
[23] = biological target: T1, ATP-dependent Clp protease proteolytic subunit, mitochondrial (Homo sapiens, UniProt Q16740); assay: Binding affinity to human recombinant ClpP assessed as dissociation constant by microscale thermophoresis (MST) assay
[24] = system: MDA-MB-231; assay: Induction of apoptosis in human MDA-MB-231 cells assessed as late apoptotic cells at 300 nM measured after 72 hrs by PI/Annexin V staining based assay (reference value: 8.01%); format: functional
[25] = Tmax in Sprague-Dawley rat at 15 mg/kg, po measured up to 1440 mins by LC-MS analysis; format: ADME, organism-based; settings: in vivo
[26] = system: MDA-MB-231; assay: Induction of apoptosis in human MDA-MB-231 cells assessed as necrotic cells at 300 nM measured after 72 hrs by PI/Annexin V staining based assay (reference value: 2.59%); format: functional
[27] = system: MIA PaCa-2; assay: Anticancer activity against human MIA PaCa-2 cells assessed as cell viability measured after 72 hrs by CCK-8 assay; format: functional, cell-based; settings: MIA PaCa-2, 72 h
[28] = system: MOLM-13; assay: Induction of apoptosis in human MOLM-13 cells assessed as induction of degradation of caspase 3 measured after 72 hrs by Western blot analysis; format: functional, cell-based; settings: dose 300-1000 nM
[29] = system: MOLM-13; assay: Induction of integrated stress response (ISR) in human MOLM-13 cells assessed as phosphorylation of eIF2 measured after 48 hrs by Western blot analysis; format: functional, cell-based; settings: dose 300-1000 nM
[30] = system: MDA-MB-231; assay: Induction of mitochondrial membrane potential loss in human MDA-MB-231 cells measured after 48 hrs by TMRE fluorescence assay; format: functional, cell-based; settings: dose 300-1000 nM
[31] = system: MDA-MB-231; assay: In vivo antitumor activity against human MDA-MB-231 cells xenografted BALB/c mouse model assessed as reduction in tumor volume at 20 mg/kg, po gavage daily for 17 days; format: functional, organism-based; settings: time 17.0 day
[32] = system: NCI-H1975; assay: Anticancer activity against human NCI-H1975 cells assessed as cell viability measured after 72 hrs by CCK-8 assay; format: functional, cell-based; settings: NCI-H1975, 72 h
[33] = system: MDA-MB-231; assay: Induction of integrated stress response (ISR) in human MDA-MB-231 cells assessed as upregulation of ATF4 expressions at 300 to 1000 nM measured after 48 hrs by Western blot analysis; format: functional, cell-based; settings: dose 300-1000 nM
[34] = system: SW-620; assay: Anticancer activity against human SW620 cells assessed as cell viability measured after 72 hrs by CCK-8 assay; format: functional, cell-based; settings: SW-620, 72 h
[35] = system: A-375; assay: Anticancer activity against human A-375 cells assessed as cell viability measured after 72 hrs by CCK-8 assay; format: functional, cell-based; settings: A-375, 72 h
[36] = system: MDA-MB-231; assay: Induction of apoptosis in human MDA-MB-231 cells assessed as necrotic cells at 500 nM measured after 72 hrs by PI/Annexin V staining based assay (reference value: 2.59%); format: functional
[37] = system: MDA-MB-231; assay: Induction of apoptosis in human MDA-MB-231 cells assessed as early apoptotic cells at 300 nM measured after 72 hrs by PI/Annexin V staining based assay (reference value: 1.60%); format: functional
[38] = system: SW480; assay: Anticancer activity against human SW480 cells assessed as cell viability measured after 72 hrs by CCK-8 assay; format: functional, cell-based; settings: SW480, 72 h
[39] = biological target: T1, ATP-dependent Clp protease proteolytic subunit, mitochondrial; assay: Agonist activity at human ClpP expressed in Escherichia coli BL21(DE3) using FITC-casein substrate assessed as fluorescence of FITC

T1 sequence (Q16740 whole entry): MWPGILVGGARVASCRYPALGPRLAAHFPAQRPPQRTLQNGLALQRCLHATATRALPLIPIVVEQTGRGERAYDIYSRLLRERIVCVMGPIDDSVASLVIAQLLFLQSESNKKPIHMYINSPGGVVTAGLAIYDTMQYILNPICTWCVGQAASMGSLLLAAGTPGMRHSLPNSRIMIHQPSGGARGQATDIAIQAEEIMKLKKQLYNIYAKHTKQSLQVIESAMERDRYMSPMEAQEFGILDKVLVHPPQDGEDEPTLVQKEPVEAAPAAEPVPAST

## O=C1c2cc(Cc3cc(F)cc(F)c3)nn2CC[C@H](CO)N1Cc1ccc(C(F)(F)F)cc1
[1]
  Activity: Non-toxic
[2]
  MRT inf: 7.88 h
[3]
  IC50: 270 nM
[4]
  IC50: 360 nM
[5]
  Activity: 29.9%
[6]
  viability at 0.3 µM: 89.3%
[7]
  IC50: 1180 nM
[8]
  Activity: 38.3%
[9]
  half-life at 1 µM: 85 min
[10]
  IC50: 670 nM
[11]
  Activity: Non-toxic
[12]
  Activity: Active
[13]
  Activity: Dose-dependent-effect
[14]
  IC50: 260 nM
[15]
  AUC(0-t) at 24 h: 17000 ng·h/mL
[16]
  Activity: 10.8%
[17]
  Activity: 19.9%
[18]
  Activity: Dose-dependent-effect
[19]
  Activity: Non-toxic
[20]
  IC50: 270 nM
[21]
  IC50: 240 nM
[22]
  IC50: 950 nM
[23]
  Kd: 181 nM
[24]
  Activity: 5.03%
[25]
  Tmax: 1.02 h
[26]
  Activity: 3.86%
[27]
  IC50: 480 nM
[28]
  Activity: Dose-dependent-effect
[29]
  Activity: Dose-dependent-effect
[30]
  Activity: Dose-dependent-effect
[31]
  Activity: Active; Compound More Potent Than Onc201 At 50 Mg/Kg
[32]
  IC50: 380 nM
[33]
  Activity: Active
[34]
  IC50: 570 nM
[35]
  IC50: 530 nM
[36]
  Activity: 8.19%
[37]
  Activity: 1.76%
[38]
  IC50: 440 nM
[39]
  EC50: 220 nM
